Measured values published in patent publication US20050191308A1 (priority 1999, published 2005).

System: M. tuberculosis (Erdman)
Details: in vivo

CCCCCCCCCCCCCCCCCC[N+](C)(C)CCCCCCCCCCCCCCCCCC.[Br-] [DDA]
Log10 resistance, Lung, Experiment I: <0.05 log10 | Log10 resistance, Spleen, Experiment I: <0.05 log10
